Paper PMC11648822, “Lactam Truncation Yields a Dihydroquinazolinone Scaffold with Potent Antimalarial Activity that Targets PfATP4” (Chemmedchem, 2024)
Several values for one entry are separate records, joined by “and”; a condition that tells them apart may be missing. Identical values can stand only once.

Test system: P. berghei ANKA
Experiment: P. berghei 4-day mouse model
Type: in vivo
Conditions: 20 mg/kg p.o. q.d. at 2, 24, 48, 72 h
Method: In this model, mice are infected with P. berghei ANKA asexual blood stage parasites. Compounds are then administered by oral gavage at 20 mg/kg 2, 24, 48, and 72 hours after the parasite infection.
Each day, a fresh aliquot of the compound stock was diluted 1/10 in water for administration to mice. 8 week old female mice (Ozgene) on day 0 were infected with 2×10^7 P. berghei ANKA‐infected erythrocytes. […] 2 mice were also dosed with artesunate using the same regime at 30 mg/kg. The parasitemia of mice was assessed by visualizing Giemsa‐stained thin blood smears by microscopy and a minimum of 1000 RBCs were counted. To calculate the percent antimalarial activity the following formula was used: 100 ‐ (mean parasitemia treated day 4 post‐infection/mean parasitemia vehicle control day 4 post‐infection)×100. Mice were culled the day following the last oral gavage.
Briefly, ‘donor’ female Swiss mice were infected intraperitoneally (IP) with blood stage P. berghei parasites constitutively expressing GFP (P. berghei ANKA GFPcon 259cl2).[36] Three days later, groups of 3 ‘acceptor’ Swiss mice were infected intravenously with 1 x 10^7 parasitised red blood cells from the ‘donor mice’. […] Control mice were left untreated. Peripheral blood samples were taken 24 h after administration of the last dose, and parasitemia was measured by flow cytometry (proportion of GFP‐positive cells in 100,000 recorded events using Attune Nxt, ThermoFisher) and microscopic analysis of Giemsa‐stained blood smears. Parasitemia values were averages of 3 mice per group.

CN1C(=O)c2ccc(-n3cccn3)cc2NC1(C)C(=O)Nc1cncc(Cl)c1 (centres unmarked) [Compound 33, N‐(5‐Chloropyridin‐3‐yl)‐2,3‐dimethyl‐4‐oxo‐7‐(1H‐pyrazol‐1‐yl)‐1,2,3,4‐tetrahydroquinazoline‐2‐carboxamide]
% parasitemia (day 4): 12.8%
% reduction in parasitemia (day 4, versus control): 46% and 46.7%
